How the values were obtained:
Test in all cases: KINOMEscan Max
Type in all cases: binding
[1] = biological target: T1, EPHB2 (Homo sapiens, UniProt P29323); conditions: 1 μM
T1 construct: purchased Ambit (KINOMEscan Max service)
How it was run: (§1)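 Competitive displacement format with DNA-tagged human kinase and an immobilized active-site probe; detection by qPCR amplification of the kinase's DNA tag.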

[2] = biological target: T2, TRKA (Homo sapiens, UniProt P04629)
T2 construct: purchased Ambit Kinomescan (contract screening service)
T2 sequence (P04629 33-796): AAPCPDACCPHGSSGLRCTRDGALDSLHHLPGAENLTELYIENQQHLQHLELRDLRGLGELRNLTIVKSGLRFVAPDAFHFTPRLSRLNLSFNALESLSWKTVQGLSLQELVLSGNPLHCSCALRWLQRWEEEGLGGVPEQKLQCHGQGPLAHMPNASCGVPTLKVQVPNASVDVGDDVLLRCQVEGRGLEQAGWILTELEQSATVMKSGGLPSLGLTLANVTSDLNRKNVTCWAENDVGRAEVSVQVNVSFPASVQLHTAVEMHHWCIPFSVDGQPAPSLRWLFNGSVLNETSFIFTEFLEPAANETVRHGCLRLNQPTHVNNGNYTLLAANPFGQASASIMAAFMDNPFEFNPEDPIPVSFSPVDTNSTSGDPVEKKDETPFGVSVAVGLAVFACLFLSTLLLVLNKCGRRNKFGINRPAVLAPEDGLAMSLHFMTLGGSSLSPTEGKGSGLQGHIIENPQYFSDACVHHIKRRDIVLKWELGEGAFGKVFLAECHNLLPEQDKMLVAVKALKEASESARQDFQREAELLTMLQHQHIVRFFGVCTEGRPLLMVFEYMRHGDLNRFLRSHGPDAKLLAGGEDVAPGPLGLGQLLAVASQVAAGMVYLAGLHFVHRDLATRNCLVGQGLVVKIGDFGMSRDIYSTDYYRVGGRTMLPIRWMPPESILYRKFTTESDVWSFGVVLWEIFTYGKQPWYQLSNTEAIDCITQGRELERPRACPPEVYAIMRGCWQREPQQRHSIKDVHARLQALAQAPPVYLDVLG
How it was run: as §1

[3] = biological target: T3, FLT3(R834Q) (Homo sapiens, UniProt P36888, R834Q)
T3 construct: purchased Ambit Kinomescan (contract panel, KINOMEscan Max)
How it was run: as §1

[4] = biological target: T4, LZK (Homo sapiens, UniProt O43283); conditions: 1 μM
T4 construct: purchased Ambit Kinomescan (contract panel)
How it was run: as §1

[5] = biological target: MEK5 (Homo sapiens, UniProt Q13163)
How it was run: as §1

[6] = biological target: T5, EPHA6 (Homo sapiens, UniProt Q9UF33)
T5 construct: purchased Ambit (KINOMEscan Max panel service)
How it was run: as §1

[7] = biological target: T6, CSNK1G2 (Homo sapiens, UniProt P78368); conditions: 1 μM
T6 construct: purchased Ambit (KINOMEscan Max panel service)
T6 sequence (P78368 whole entry): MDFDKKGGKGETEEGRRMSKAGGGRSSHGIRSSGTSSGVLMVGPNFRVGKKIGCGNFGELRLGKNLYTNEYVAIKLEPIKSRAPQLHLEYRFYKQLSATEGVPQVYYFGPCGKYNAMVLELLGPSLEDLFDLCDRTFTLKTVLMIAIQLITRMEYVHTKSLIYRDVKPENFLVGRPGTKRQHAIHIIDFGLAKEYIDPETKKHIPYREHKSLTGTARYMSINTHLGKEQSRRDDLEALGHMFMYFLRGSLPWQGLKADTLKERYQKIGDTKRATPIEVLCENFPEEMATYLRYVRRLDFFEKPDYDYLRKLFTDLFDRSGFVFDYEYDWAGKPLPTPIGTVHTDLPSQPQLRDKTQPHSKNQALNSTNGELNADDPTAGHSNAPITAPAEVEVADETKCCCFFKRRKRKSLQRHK
How it was run: as §1

[8] = biological target: T7, JNK1 (Homo sapiens, UniProt P45983); conditions: 1 μM
T7 construct: purchased Ambit Kinomescan (contract panel)
How it was run: as §1

[9] = biological target: ABL1(Q252H)-nonphosphorylated (Homo sapiens, UniProt P00519, Q252H)
How it was run: as §1

[10] = biological target: MKNK1 (Homo sapiens, UniProt Q9BUB5)
How it was run: as §1

[11] = biological target: T8, RSK3(Kin.Dom.1-N-terminal) (Homo sapiens, UniProt Q15349)
T8 construct: RSK3(Kin.Dom.1-N-terminal); DNA tag (qPCR read-out)
T8 sequence (Q15349 59-318 limits assumed): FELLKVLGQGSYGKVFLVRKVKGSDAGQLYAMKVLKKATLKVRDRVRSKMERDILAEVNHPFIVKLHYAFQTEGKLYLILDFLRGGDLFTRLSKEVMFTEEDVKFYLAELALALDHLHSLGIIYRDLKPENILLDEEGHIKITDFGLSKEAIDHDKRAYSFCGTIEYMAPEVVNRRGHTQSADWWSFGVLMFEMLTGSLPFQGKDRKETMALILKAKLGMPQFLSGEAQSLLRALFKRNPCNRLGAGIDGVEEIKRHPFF
How it was run: as §1

[12] = biological target: T9, MAP4K4 (Homo sapiens, UniProt O95819)
T9 construct: purchased Ambit Kinomescan (contract screening)
How it was run: as §1

[13] = biological target: T10, CDKL1 (Homo sapiens, UniProt Q00532)
T10 construct: DNA tag (qPCR label); purchased Ambit Kinomescan (contract screening)
How it was run: as §1

[14] = biological target: T11, ICK (Homo sapiens, UniProt Q9UPZ9)
T11 construct: purchased Ambit Kinomescan (contract panel, KINOMEscan Max)
How it was run: as §1

[15] = biological target: T12, CAMK2D (Homo sapiens, UniProt Q13557)
T12 construct: DNA tag (qPCR label); purchased Ambit Kinomescan (contract screening)
How it was run: as §1

[16] = biological target: T13, BRK (Homo sapiens, UniProt Q13882)
T13 construct: DNA tag (qPCR label); purchased Ambit Kinomescan (contract screening)
T13 sequence (Q13882 whole entry): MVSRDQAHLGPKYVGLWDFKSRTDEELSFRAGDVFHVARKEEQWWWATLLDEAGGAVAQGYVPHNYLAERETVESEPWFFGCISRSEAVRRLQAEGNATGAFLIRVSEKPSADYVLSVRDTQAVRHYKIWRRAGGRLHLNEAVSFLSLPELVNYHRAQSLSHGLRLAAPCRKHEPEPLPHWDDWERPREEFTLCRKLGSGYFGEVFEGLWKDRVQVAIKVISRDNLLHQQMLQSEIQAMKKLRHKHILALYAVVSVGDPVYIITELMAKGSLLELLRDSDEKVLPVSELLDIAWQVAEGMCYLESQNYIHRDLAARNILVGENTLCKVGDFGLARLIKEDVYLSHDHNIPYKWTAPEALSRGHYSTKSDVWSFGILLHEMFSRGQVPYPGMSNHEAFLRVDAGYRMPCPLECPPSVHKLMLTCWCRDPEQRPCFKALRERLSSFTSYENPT
How it was run: as §1

[17] = biological target: T14, PIK3CG (Homo sapiens, UniProt P48736)
T14 construct: purchased Ambit Kinomescan (contract screening)
How it was run: as §1

[18] = biological target: NEK5 (Homo sapiens, UniProt Q6P3R8)
Sequence of NEK5 (Q6P3R8 whole entry): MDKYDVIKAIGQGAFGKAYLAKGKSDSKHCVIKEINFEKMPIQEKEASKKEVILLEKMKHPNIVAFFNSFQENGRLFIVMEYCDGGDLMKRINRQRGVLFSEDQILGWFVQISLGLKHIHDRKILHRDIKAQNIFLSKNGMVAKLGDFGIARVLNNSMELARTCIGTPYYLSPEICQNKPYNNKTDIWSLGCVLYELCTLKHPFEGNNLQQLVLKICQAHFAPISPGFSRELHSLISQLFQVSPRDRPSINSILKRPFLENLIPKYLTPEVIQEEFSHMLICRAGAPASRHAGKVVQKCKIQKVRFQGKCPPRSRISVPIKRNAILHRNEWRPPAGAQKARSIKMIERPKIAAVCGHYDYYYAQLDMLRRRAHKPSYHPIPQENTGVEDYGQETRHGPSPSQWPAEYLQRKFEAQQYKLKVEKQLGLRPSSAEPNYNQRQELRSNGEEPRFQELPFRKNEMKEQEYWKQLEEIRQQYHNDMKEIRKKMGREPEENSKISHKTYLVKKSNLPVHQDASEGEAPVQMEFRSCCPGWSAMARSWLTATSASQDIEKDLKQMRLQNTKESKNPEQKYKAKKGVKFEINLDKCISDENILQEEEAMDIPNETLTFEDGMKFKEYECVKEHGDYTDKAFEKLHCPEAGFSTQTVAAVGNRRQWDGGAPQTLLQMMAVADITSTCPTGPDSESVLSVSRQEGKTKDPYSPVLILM
How it was run: as §1

[19] = biological target: T15, PIK3CA(I800L) (Homo sapiens, UniProt P42336, I800L)
T15 construct: DNA tag (qPCR read-out)
How it was run: as §1

[20] = biological target: T16, FLT3(D835Y) (Homo sapiens, UniProt P36888, D835Y)
T16 construct: DNA tag (qPCR read-out); purchased Ambit Kinomescan
How it was run: as §1

[21] = biological target: T17, PAK1 (Homo sapiens, UniProt Q13153)
T17 construct: DNA tag (qPCR read-out)
How it was run: as §1

[22] = biological target: TRKC (Homo sapiens, UniProt Q16288)
Sequence of TRKC (Q16288 32-839): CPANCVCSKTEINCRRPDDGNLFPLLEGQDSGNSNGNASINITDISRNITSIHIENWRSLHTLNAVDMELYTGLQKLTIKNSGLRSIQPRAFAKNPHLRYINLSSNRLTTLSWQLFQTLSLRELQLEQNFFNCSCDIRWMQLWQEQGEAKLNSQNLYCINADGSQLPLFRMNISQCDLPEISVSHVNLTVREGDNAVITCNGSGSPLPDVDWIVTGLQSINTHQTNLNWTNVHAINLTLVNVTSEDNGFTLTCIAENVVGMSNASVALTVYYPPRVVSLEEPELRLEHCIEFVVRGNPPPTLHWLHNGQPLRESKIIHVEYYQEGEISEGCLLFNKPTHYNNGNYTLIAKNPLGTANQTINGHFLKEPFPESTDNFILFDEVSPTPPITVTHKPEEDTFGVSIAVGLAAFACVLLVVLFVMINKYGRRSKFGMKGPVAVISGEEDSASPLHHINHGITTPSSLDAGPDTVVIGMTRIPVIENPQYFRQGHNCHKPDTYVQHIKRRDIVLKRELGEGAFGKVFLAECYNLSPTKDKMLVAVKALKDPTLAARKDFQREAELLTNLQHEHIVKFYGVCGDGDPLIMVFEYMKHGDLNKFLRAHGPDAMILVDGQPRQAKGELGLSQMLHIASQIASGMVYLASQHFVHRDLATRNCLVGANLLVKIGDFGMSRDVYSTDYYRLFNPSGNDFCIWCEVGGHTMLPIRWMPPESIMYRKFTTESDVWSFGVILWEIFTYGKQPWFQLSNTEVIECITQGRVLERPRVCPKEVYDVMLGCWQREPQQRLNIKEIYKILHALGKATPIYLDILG
How it was run: as §1

[23] = biological target: T18, PIK3CA (Homo sapiens, UniProt P42336)
T18 construct: DNA tag (qPCR read-out)
How it was run: as §1

[24] = biological target: CTK (Homo sapiens, UniProt P42679)
How it was run: as §1

[25] = biological target: ABL1(F317L)-phosphorylated (Homo sapiens, UniProt P00519, F317L)
How it was run: as §1

[26] = biological target: T19, TAK1 (Homo sapiens, UniProt O43318)
T19 construct: purchased Ambit (KINOMEscan Max service)
How it was run: as §1

[27] = biological target: FLT4 (Homo sapiens, UniProt P35916)
How it was run: as §1

[28] = biological target: T20, FLT3(D835H) (Homo sapiens, UniProt P36888, D835H)
T20 construct: purchased Ambit (KINOMEscan Max service)
How it was run: as §1

[29] = biological target: T21, WEE2 (Homo sapiens, UniProt P0C1S8)
T21 construct: purchased Ambit Kinomescan (contract screening service)
How it was run: as §1

[30] = biological target: p38-delta (Homo sapiens, UniProt O15264)
Sequence of p38-delta (O15264 whole entry): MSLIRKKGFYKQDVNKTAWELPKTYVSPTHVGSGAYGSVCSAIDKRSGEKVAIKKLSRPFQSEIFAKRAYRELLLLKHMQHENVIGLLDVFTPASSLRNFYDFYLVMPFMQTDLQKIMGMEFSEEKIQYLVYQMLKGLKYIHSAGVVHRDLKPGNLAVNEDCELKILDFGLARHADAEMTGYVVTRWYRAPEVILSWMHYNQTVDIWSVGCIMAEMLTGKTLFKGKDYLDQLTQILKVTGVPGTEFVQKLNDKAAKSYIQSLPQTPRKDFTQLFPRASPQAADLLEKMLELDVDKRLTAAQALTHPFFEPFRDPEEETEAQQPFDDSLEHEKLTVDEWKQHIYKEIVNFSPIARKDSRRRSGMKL
How it was run: as §1

[31] = biological target: T22, PRKCE (Homo sapiens, UniProt Q02156)
T22 construct: DNA tag (qPCR read-out); purchased Ambit Kinomescan
How it was run: as §1

[32] = biological target: T23, TLK1 (Homo sapiens, UniProt Q9UKI8)
T23 construct: DNA tag (qPCR read-out)
T23 sequence (Q9UKI8 whole entry): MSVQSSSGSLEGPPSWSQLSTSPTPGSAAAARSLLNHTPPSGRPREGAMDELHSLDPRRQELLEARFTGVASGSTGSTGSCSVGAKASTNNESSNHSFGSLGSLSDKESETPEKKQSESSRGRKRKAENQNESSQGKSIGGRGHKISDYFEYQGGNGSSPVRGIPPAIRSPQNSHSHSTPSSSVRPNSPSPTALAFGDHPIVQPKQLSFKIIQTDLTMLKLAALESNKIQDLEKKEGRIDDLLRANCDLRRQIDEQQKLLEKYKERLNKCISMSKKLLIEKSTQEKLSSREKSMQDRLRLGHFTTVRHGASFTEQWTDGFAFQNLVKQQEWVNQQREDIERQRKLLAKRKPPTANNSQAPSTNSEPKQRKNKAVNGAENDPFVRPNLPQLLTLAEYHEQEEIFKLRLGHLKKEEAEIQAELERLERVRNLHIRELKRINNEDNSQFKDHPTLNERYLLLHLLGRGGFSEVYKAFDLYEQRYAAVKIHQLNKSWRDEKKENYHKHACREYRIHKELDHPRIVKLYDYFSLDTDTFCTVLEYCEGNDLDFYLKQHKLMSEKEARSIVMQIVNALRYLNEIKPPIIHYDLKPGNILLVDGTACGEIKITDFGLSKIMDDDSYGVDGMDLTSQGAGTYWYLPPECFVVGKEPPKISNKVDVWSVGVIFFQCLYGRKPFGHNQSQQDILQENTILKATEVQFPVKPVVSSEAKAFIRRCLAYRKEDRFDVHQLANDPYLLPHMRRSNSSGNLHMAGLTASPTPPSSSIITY
How it was run: as §1

[33] = biological target: T24, CAMK4 (Homo sapiens, UniProt Q16566)
T24 construct: DNA tag (qPCR label); purchased Ambit Kinomescan (contract screening)
T24 sequence (Q16566 whole entry): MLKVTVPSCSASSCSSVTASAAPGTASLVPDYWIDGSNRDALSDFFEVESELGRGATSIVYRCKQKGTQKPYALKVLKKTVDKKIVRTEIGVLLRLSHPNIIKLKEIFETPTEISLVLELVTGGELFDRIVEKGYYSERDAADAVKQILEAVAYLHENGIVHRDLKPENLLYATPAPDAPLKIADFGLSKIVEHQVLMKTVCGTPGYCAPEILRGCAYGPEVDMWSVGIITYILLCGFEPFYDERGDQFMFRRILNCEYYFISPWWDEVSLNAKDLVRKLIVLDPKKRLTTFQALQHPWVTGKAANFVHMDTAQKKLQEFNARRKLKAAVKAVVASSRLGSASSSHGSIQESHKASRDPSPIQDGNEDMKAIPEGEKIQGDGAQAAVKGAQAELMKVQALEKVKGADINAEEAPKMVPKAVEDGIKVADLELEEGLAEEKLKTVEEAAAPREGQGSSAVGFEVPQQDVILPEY
How it was run: as §1

[34] = biological target: T25, FGR (Homo sapiens, UniProt P09769)
T25 construct: purchased Ambit Kinomescan (contract panel, KINOMEscan Max)
How it was run: as §1

Q: Which results are given for `NCCCNc1nc2c(Br)c(Br)c(Br)c(Br)c2[nH]1` [Compound 11, N-(3-aminopropyl)-4,5,6,7-tetrabromo-1H-benzo[d]imidazol-2-amine]?
A: % binding [1]: 72%; remaining binding at 1 µM [2]: 100%; remaining binding at 1 µM [3]: 100%; % binding [4]: 100%; remaining binding at 1 µM [5]: 73%; remaining binding at 1 µM [6]: 100%; % binding [7]: 100%; % binding [8]: 100%; remaining binding at 1 µM [9]: 95%; remaining binding at 1 µM [10]: 100%; remaining binding at 1 µM [11]: 100%; remaining binding at 1 µM [12]: 98%; remaining binding at 1 µM [13]: 100%; remaining binding at 1 µM [14]: 100%; remaining binding at 1 µM [15]: 100%; remaining binding at 1 µM [16]: 100%; remaining binding at 1 µM [17]: 96%; remaining binding at 1 µM [18]: 100%; remaining binding at 1 µM [19]: 100%; remaining binding at 1 µM [20]: 10%; remaining binding at 1 µM [21]: 91%; remaining binding at 1 µM [22]: 94%; remaining binding at 1 µM [23]: 100%; remaining binding at 1 µM [24]: 74%; remaining binding at 1 µM [25]: 100%; remaining binding at 1 µM [26]: 65%; remaining binding at 1 µM [27]: 94%; remaining binding at 1 µM [28]: 58%; remaining binding at 1 µM [29]: 100%; remaining binding at 1 µM [30]: 100%; remaining binding at 1 µM [31]: 23%; remaining binding at 1 µM [32]: 89%; remaining binding at 1 µM [33]: 100%; remaining binding at 1 µM [34]: 100%

From patent US20110230481A2, “DERIVATIVES OF TETRABROMOBENZIMIDAZOLE, A PROCESS FOR THE PREPARATION THEREOF, A PHARMACEUTICAL COMPOSITION COMPRISING THE SAME, A METHOD OF USING THE SAME, A METHOD FOR MODULATING OR REGULATING SERINE/THREONINE KINASES, AND SERINE/THREONINE KINASES MODULATING AGENT” (SELVITA S.A., priority 2009, published 2011)
